Tests used:
[1] = target: T1, WRN protein (AA N517-P1238, ICE, Cat. S2212T-H56HZ) (Homo sapiens, UniProt Q14191); assay: Assay for WRN helicase activity (FORKF dsDNA unwinding, fluorescence); type: biochemical; settings: inhibition of WRN helicase activity; 10 nM WRN, 10 nM FORKF, 2 mM ATP
T1 construct: WRN protein (AA N517-P1238, ICE, Cat. S2212T-H56HZ); purchased ICE S2212T-H56HZ
Description: The assay buffer working solution prepared with RNAase-free water was as follows: 25 mM Tris (pH 7.5), 2 mM MgCl2, 50 mM NaCl, 0.02% BSA, 0.01% Tween, and 1 mM DTT. WRN protein (AA N517-P1238, ICE, Cat. S2212T-H56HZ) was obtained through protein expression and purification in vitro. Two single-stranded DNAs were synthesized: […]-BHQ2 (quencher), and (fluorophore) TAMRA-[…]. dsDNA (FORKF) was obtained via annealing of the two single-stranded DNAs. When the WRN protein bound to FORKF, the dsDNA was unwound, exposing the fluorophore, thereby generating fluorescence. 2 µL of compounds at different concentrations and 4 µL of WRN protein were added to a 384-well black plate (Greiner, Cat#784075). The plate was pre-incubated at room temperature for 20 minutes. 2 µL each of ATP and the FORKF substrate were added. The working concentrations of the WRN protein, FORKF, and ATP were 10 nM, 10 nM, and 2 mM, respectively. The plate was incubated at room temperature for 20 minutes. After the incubation was completed, the fluorescence value was read at Ex 540 nm/Em 590 nm using a BMG microplate reader (PHERAstar FSX).
(§1) The inhibition rate was calculated according to Formula 2, where RLUsample is the readout of the compound well, RLUmax is the readout of the DMSO control well, and RLUmin is the readout of the control well without the WRN protein. Curve fitting was performed via a four-parameter logistic model using GraphPad Prism software, and the IC50 value (the concentration of the compound when the inhibition rate was 50%) was calculated. Inhibition% = (1−(RLUsample−RLUmin)/(RLUmax−RLUmin)) × 100% [formula] Table 2. Results of inhibitory activity of test compounds against WRN helicase activity

HT-29 cells = assay: HT-29 cell proliferation inhibition assay (CellTiter-Glo); type: cell-based; settings: Homo sapiens, 96 h, 4 days, read-out: Inhibitory activity against HT-29 cell proliferation IC50
Description: (§2) The culture conditions for HT-29 cells were as follows: DMEM + 10% FBS + 1% penicillin-streptomycin, and the cells were cultured in an incubator with 5% CO2 at 37°C. On the first day, the HT-29 cells in the exponential growth phase were collected and plated in 96-well cell culture plates at a density of 1000 cells/well (180 µL/well). The plates were cultured overnight in an incubator with 5% CO2 at 37°C. T0 wells were plated simultaneously during the plating process. The next day, 20 µL of compounds at different concentrations were added to each well (nine compound concentration gradients, one DMSO well, and one blank well; each compound concentration was plated in triplicate), and the final concentration of DMSO in each well was 0.1%. The plates were cultured in an incubator with 5% CO2 at 37°C for 4 days. On the same day of compound addition, the T0 plate was detected using the CellTiter-Glo Kit, and the detected value was recorded as RLU0. After the culture was completed, 100 µL of detection solution (Cell Viability Assay, Promega) was added to each well. The plates were incubated at room temperature for 10 minutes with slow shaking. The chemiluminescence reading was read using a BMG microplate reader (PHERAstar FSX). The results were processed according to Formula (4) to calculate the proliferation inhibition rate of compounds at each concentration. Curve fitting was performed via a four-parameter logistic model using GraphPad Prism software, and the GI50 value (the concentration of the compound when the proliferation inhibition rate was 50%) was calculated. In the formula, RLUcompound is the readout of the drug-treated group, RLUcontrol is the average value of the compound vehicle control group, and RLUBlank is the average value of the blank control group. [formula]

SW48 cells = assay: SW48 cell proliferation inhibition assay (CellTiter-Glo); type: cell-based; settings: Homo sapiens, 96 h, 4 days, read-out: Inhibitory activity against SW48 cell proliferation IC50
Description: as §2, with “SW48” for “HT-29”, “Leibovitz L15” for “DMEM”, “without” for “with 5%”, “(5)” for “(4)”, “[formula] Table 3. Results of inhibitory activity of test compounds against cell proliferation” for “[formula]”

[2] = Mouse pharmacokinetic assay; type: in vivo, Balb/c mice; settings: po, mouse plasma, i.g. (10 mg/kg)
Description: 4.1. Experimental animals: Male Balb/c mice, about 22 g, 6-8 weeks old, 6 mice/compound. The animals were purchased from CHENGDU DOSSY EXPERIMENTAL ANIMALS CO., LTD.
4.2. Experimental design: On the day of the experiment, the Balb/c mice were randomly grouped according to their body weights. The animals were fasted with water available for 12-14 h one day before the administration, and were fed 4 h after the administration. Table 4. Administration information
Vehicle for intravenous administration: 5% DMA + 5% Solutol + 90% Saline; and vehicle for intragastric administration: 5% DMSO + 95% (20% SBE-β-CD in Saline)
Before and after the administration, 0.03 ml of blood was taken from the orbit under isoflurane anesthesia and placed in an EDTAK2 centrifuge tube. The tube was centrifuged at 5000 rpm at 4°C for 10 min, and plasma was collected. The blood collection time points for the intravenous administration group and intragastric administration group were as follows: 0, 2 min, 5 min, 15 min, 30 min, 1 h, 2 h, 4 h, and 7 h. Before analysis and detection, all samples were stored at - 80°C. Table 5. Pharmacokinetic parameters of test compounds in mouse plasma

[3] = Beagle dog pharmacokinetic assay; type: in vivo, Beagle dogs; settings: male, po; Beagle dog plasma, i.g. (3 mg/kg)
Description: 7.1. Experimental animals: Male Beagle dogs, about 8-13 kg, 6 Beagle dogs/compound.
7.2. Experimental method: On the day of the experiment, the Beagle dogs were randomly grouped according to their body weights. The animals were fasted with water available for 14-18 h one day before the administration, and were fed 4 h after the administration. The animals were administered according to Table 6. Table 6. Administration information
Note: Vehicle for intravenous administration: 5% DMA + 5% Solutol + 90% Saline; and vehicle for intragastric administration: 5% DMSO + 95% (20% SBE-β-CD in Saline) (DMA: dimethylacetamide; Solutol: polyethylene glycol-15-hydroxystearate; Saline: normal saline; and MC: methylcellulose)
Before and after the administration, 1 ml of blood was taken from the jugular veins or limb veins and placed in an EDTAK2 centrifuge tube. The tube was centrifuged at 5000 rpm at 4°C for 10 min, and plasma was collected. The blood collection time points for the intravenous administration group and intragastric administration group were as follows: 0, 5 min, 15 min, 30 min, 1 h, 2 h, 4 h, 6 h, 8 h, 10 h, 12 h, 24 h, and 48 h. Before analysis and detection, all samples were stored at -80°C. The samples were analyzed quantitatively by LC-MS/MS. Table 7. Pharmacokinetic parameters of test compounds in Beagle dog plasma

[4] = target: T2, WRN protein (AA N517-P1238, ICE) (Homo sapiens, UniProt Q14191); assay: Assay for ATPase activity of WRN helicase (ADP-Glo); type: biochemical; settings: inhibition of ATPase activity of WRN helicase; 0.3 nM WRN, 0.2 nM DNA substrate, 10 µM ATP
T2 construct: WRN protein (AA N517-P1238, ICE); purchased ICE
T2 sequence (Q14191 517-1238): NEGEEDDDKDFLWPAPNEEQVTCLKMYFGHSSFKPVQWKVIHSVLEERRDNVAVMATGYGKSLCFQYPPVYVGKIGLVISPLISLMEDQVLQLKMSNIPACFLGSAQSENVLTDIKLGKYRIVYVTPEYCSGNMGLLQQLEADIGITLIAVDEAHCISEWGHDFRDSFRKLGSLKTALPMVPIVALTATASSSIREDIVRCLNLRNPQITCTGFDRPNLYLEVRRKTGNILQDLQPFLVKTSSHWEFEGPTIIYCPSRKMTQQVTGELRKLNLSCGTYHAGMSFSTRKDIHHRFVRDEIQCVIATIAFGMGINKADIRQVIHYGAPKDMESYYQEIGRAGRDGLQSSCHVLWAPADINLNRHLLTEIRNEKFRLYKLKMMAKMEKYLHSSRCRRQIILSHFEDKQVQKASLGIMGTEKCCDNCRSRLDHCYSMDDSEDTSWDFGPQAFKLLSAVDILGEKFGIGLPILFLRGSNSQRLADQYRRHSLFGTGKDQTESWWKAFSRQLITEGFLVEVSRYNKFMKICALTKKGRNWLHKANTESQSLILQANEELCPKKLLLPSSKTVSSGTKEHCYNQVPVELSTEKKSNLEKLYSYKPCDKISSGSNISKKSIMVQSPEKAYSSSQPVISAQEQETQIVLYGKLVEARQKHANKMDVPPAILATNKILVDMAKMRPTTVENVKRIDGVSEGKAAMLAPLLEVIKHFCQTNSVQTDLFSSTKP
Description: The assay buffer working solution was as follows: 30 mM Tris pH 7.5 + 0.02% BSA + 2 mM MgCl2 + 50 mM NaCl + 0.1% Pluronic® F127 + 1 mM DTT. WRN protein (AA N517-P1238, ICE) was obtained through protein expression and purification in vitro. A single-stranded DNA substrate ([…]) was synthesized in vitro. 1 µL each of compounds at different concentrations, the WRN protein, and the DNA substrate, together with 2 µL of ATP, were added to a 384-well white plate. The working concentrations of the WRN protein, the DNA substrate, and the ATP were 0.3 nM, 0.2 nM, and 10 µM, respectively. The plate was incubated at room temperature for 20 minutes. After the incubation was completed, the detection was performed in accordance with the instructions of the ADP-Glo Assay Kit (Promega), and the chemiluminescence value was read.
as §1, with “1,” for “2,”, “model (log(inhibitor) vs. response -- Variable slope)” for “model”, “value” for “value (the concentration of the compound when the inhibition rate was 50%)”, “1.” for “2.”, “against ATPase activity of” for “against”, “helicase” for “helicase activity”

T1 sequence (Q14191 517-1238, stated change not applied): as the sequence (Q14191 517-1238) above

**Q.** With `Cc1ncnc(C(=O)N2CCN(c3c4n(c5nc(C6=CCOCC6)nn5c3=O)C(C(=O)Nc3ccc(C(F)(F)F)cc3Cl)CC4)CC2)c1O` (single isomer, unassigned) [Compound 6-B] as the compound, how does the IC50 [1] read?
**A.** The IC50 was less than 20 nM.

**Q.** For `Cc1ncnc(C(=O)N2CCN(c3c4n(c5nc(C6=CCOCC6)nn5c3=O)C(C(=O)Nc3ccc(C(F)(F)F)cc3Cl)CCC4)[C@@H](C)C2)c1O` (single isomer, unassigned) [Compound 26-A], which IC50 (HT-29 cells) is on record?
**A.** Its IC50 is no less than 10000 nM.

**Q.** What about the IC50 [1] of the same compound?
**A.** Its IC50 is less than 20 nM.

**Q.** What about the IC50 (SW48 cells) of the same compound?
**A.** Its IC50 is less than 100 nM.

**Q.** For `Cc1ncnc(C(=O)N2CCN(c3c4n(c5nc(C6=CCOCC6)nn5c3=O)C(C(=O)Nc3ccc(C(F)(F)F)cc3Cl)CCC4)CC2)c1O` (racemic) [Compound 1], which IC50 [1] is on record?
**A.** The IC50 was 20 to 100 nM.

**Q.** And the IC50 (SW48 cells)?
**A.** The IC50 was less than 100 nM.

**Q.** What does the source list for `[2H]C1([2H])N(C(=O)c2ncnc(C)c2O)C([2H])([2H])C([2H])([2H])N(c2c3n(c4nc(C5=CCOCC5)nn4c2=O)C(C(=O)Nc2ccc(C(F)(F)F)cc2Cl)CCC3)C1([2H])[2H]` (single isomer, unassigned) [Compound 7-B]?
**A.** IC50 [1]: < 20 nM; IC50 (SW48 cells): < 100 nM

**Q.** For `Cc1ncnc(C(=O)N2CCN(c3c4n(c5nc(C6=CCOCC6)nn5c3=O)C(C(=O)Nc3ccc(C(F)(F)F)nc3Cl)CCC4)CC2)c1O` (single isomer, unassigned) [Compound 3-B], which IC50 [1] is on record?
**A.** Its IC50 is less than 20 nM.

**Q.** With `Cc1ncnc(C(=O)N2CC3(CCN(c4c5n(c6nc(C7=CCOCC7)nn6c4=O)C(C(=O)Nc4ccc(C(F)(F)F)cc4Cl)CCC5)CC3)C2)c1O` (single isomer, unassigned) [Compound 14-B] as the compound, how does the AUC(0-t) ([2]; in vivo) read?
**A.** The AUC(0-t) was 24200 ng·h/mL.

**Q.** And the half-life ([2]; in vivo)?
**A.** Its half-life is 5.41 h.

**Q.** What does the source list for `CCc1c(N2CCN(C(=O)c3ncnc(C)c3O)CC2)c(=O)n2nc(C3=CCOCC3)nc2n1CC(=O)Nc1ccc(C(F)(F)F)cc1Cl` [HRO761, reference compound]?
**A.** AUC(0-t) ([2]; male, Balb/c): 9210 ng·h/mL; half-life ([2]; male, Balb/c): 2.32 h; bioavailability ([2]; male, Balb/c, read-out: F (%)): 74.1%; AUC(0-t) [3]: 10800 ng·h/mL

**Q.** With `O=C(Nc1ccc(C(F)(F)F)cc1Cl)C1CCCc2c(N3CCN(C(=O)c4ncccc4O)CC3)c(=O)n3nc(C4=CCOCC4)nc3n21` (single isomer, unassigned) [Compound 2-B] as the compound, how does the IC50 [1] read?
**A.** Its IC50 is less than 20 nM.

**Q.** What about the IC50 [4] of the same compound?
**A.** Its IC50 is less than 20 nM.

**Q.** What about the IC50 (SW48 cells) of the same compound?
**A.** Its IC50 is less than 100 nM.

**Q.** Which IC50 [1] does the source give for `Cc1ncnc(C(=O)N2CCN(c3c4n(c5nc(C6=CCOCC6)nn5c3=O)C(C(=O)Nc3ccc(C(F)(F)F)cc3F)CCC4)CC2)c1O` (single isomer, unassigned) [Compound 15-B] here?
**A.** The IC50 was less than 20 nM.

**Q.** With `Cc1ncnc(C(=O)N2CCN(c3c4n(c5nc(C6=CCOCC6)nn5c3=O)C(C(=O)Nc3ccc(C(F)(F)F)c5c3CCC5)CCC4)CC2)c1O` (racemic) [Compound 28] as the compound, how does the IC50 [1] read?
**A.** The IC50 was less than 20 nM.

**Q.** With `Cc1cc(C(F)(F)F)ccc1NC(=O)C1CCCc2c(N3CCN(C(=O)c4ncnc(C)c4O)CC3)c(=O)n3nc(C4=CCOCC4)nc3n21` (single isomer, unassigned) [Compound 5-B] as the compound, how does the IC50 [1] read?
**A.** Its IC50 is less than 20 nM.
